GI50 and TGI data for 20 molecules are collected here from PubChem BioAssay (NCI).

Each structure is given as a SMILES string. Several values for one entry are separate records, joined by “and”; a condition that tells them apart may be missing. Identical values can stand only once.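 Following 48 hours of exposure in 96-well plates, responses at five concentrations were used to interpolate endpoints linearly. GI50 = concentration required for 50% inhibition of growth. The concentration for full growth arrest is given as TGI.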

The first test relates to HT29 colon. As to the kind of experiment: inhibition of tumour cell growth, NCI panel, 48 h.
For `CCN=C1C=CC(=C(c2ccc(N(C)C)cc2)c2ccc(N(C)C)cc2)c2ccccc21`, the GI50 was 32.6 nM and the TGI was 0.207 µM.

As for `Nc1ncnc2c1ccn2C1OC2COP(=O)(O)OC2C1O` (centres undefined), the TGI amounted to 11.7 µM.

For the molecule `Cc1cc(N2CCCCC2)nc(N(CCNc2ccnc3cc(Cl)ccc23)Cc2ccco2)n1`, the GI50 was 1050 nM and the TGI worked out at 2.84 µM.

In turn, `O=C(O)[C@@H]1C2CC([C@@H]1C(=O)O)[C@H](N1C(=O)CCC1=O)[C@@H]2Br` (some centres undefined) had a TGI of more than 100 µM.

Take `CCCN1C(=O)/C(=c2\sc3n(c2=O)C2C(NN=3)N(CC)C(=O)N2CC)c2ccccc21` (centres undefined): the GI50 is 347 nM and the TGI is 12.2 µM.

Take `CCn1c(-c2nonc2N)nc2cncc(C(=O)N3CCNCC3)c21`: the GI50 was more than 25000 nM and the TGI is more than 25 µM.

Turning to `c1ccc2[nH]c(-c3ccc(N4CCN(c5ccc(-c6nc7ccccc7[nH]6)cc5)CC4)cc3)nc2c1`, the GI50 was more than 100000 nM and the TGI is more than 100 µM.

As for `CCN(CC)CCOc1ccc(C(=C(C)c2ccc(Cl)cc2)c2ccc(OCCN(CC)CC)cc2)cc1`, the GI50 is 578 nM and the TGI was found to be 1.27 µM.

With `C[C@]12CC[C@H]3[C@@H](CCC4=CC(=O)CC[C@@H]43)[C@@H]1CC[C@@H]2OC(=O)N(CCCl)N=O`, the GI50 is 3700 nM and the TGI was found to be 13.7 µM.

Turning to `CC12CCC(=O)C=C1CCC1C2CCC2(C)C(C(=O)Cn3cnc4c(=S)nc[nH]c43)CCC12` (centres undefined), the TGI is more than 100 µM.

Take `CN(C)CCNC(=O)c1cccn2c(=O)c3cc4ccccc4cc3nc12`: the GI50 was 69.1 nM.

`Cn1c(=O)c2[nH]c(/N=N/N3CCN(CCO)CC3)nc2n(C)c1=O` gave a TGI of more than 100 µM.

For `COc1cc2c(cc1OC)-c1ccc3cc4c(cc3c1N(CCN1CCCC1)C2)OCO4`, the GI50 was 313 nM and the TGI is 1.47 µM.

For `c1ccc2nc(Cn3c[n+](Cc4ccc5ccccc5n4)c4ccccc43)ccc2c1`, the GI50 is 1480 nM and the TGI is 9.87 µM.

The molecule `O=C(O)CS(=O)(=O)C(c1ccccc1)c1ccccc1` showed a TGI of more than 100 µM.

Consider `C=C(C)[C@@H]1CC[C@]2(C(=O)NCCCN)CC[C@]3(C)[C@H](CC[C@@H]4[C@@]5(C)CC[C@H](O)C(C)(C)[C@@H]5CC[C@]43C)[C@@H]12`, for which the GI50 is 6950 nM and the TGI turned out to be 38.4 µM.

Take `O=C(Nc1cccc(Cl)c1)Nc1ncc(CCNc2ncnc3ccsc23)s1`: the GI50 was 3330 nM and 3030 nM; the TGI is 23.1 µM and > 10 µM.

As for `CCOC(=O)Cc1c[nH]c(=S)[nH]c1=O`, the GI50 was more than 100000 nM and the TGI was more than 100 µM.

Consider `CCc1c(C)[nH]c(/C=C2\N=C(c3ccc[nH]3)C=C2OC)c1C`, for which the GI50 is less than 37.6 nM and the TGI was found to be 2.29 µM.

For `CCc1ccc(NC(=O)Nc2c[nH]c3ccccc23)cc1`, the GI50 is more than 43500 nM and the TGI is more than 61.2 µM.

A further test concerns SF-268 CNS. Kind of test: inhibition of tumour cell growth, NCI panel, 48 h.
`CCN=C1C=CC(=C(c2ccc(N(C)C)cc2)c2ccc(N(C)C)cc2)c2ccccc21`: the GI50 was 114 nM and the TGI was found to be 0.981 µM.

`Nc1ncnc2c1ccn2C1OC2COP(=O)(O)OC2C1O` (centres undefined) returned a TGI of 8.06 µM.

Consider `Cc1cc(N2CCCCC2)nc(N(CCNc2ccnc3cc(Cl)ccc23)Cc2ccco2)n1`, for which the GI50 was 2570 nM and the TGI is 6.53 µM.

`O=C(O)[C@@H]1C2CC([C@@H]1C(=O)O)[C@H](N1C(=O)CCC1=O)[C@@H]2Br` (some centres undefined) registered a TGI of more than 100 µM.

As to `CCCN1C(=O)/C(=c2\sc3n(c2=O)C2C(NN=3)N(CC)C(=O)N2CC)c2ccccc21` (centres undefined), the GI50 was 959 nM and the TGI worked out at 19 µM.

As for `CCn1c(-c2nonc2N)nc2cncc(C(=O)N3CCNCC3)c21`, the GI50 is more than 25000 nM and the TGI is more than 25 µM.

Take `c1ccc2[nH]c(-c3ccc(N4CCN(c5ccc(-c6nc7ccccc7[nH]6)cc5)CC4)cc3)nc2c1`: the GI50 was more than 100000 nM and the TGI is more than 100 µM.

For `CCN(CC)CCOc1ccc(C(=C(C)c2ccc(Cl)cc2)c2ccc(OCCN(CC)CC)cc2)cc1`, the GI50 was 659 nM and the TGI was 1.49 µM.

For `C[C@]12CC[C@H]3[C@@H](CCC4=CC(=O)CC[C@@H]43)[C@@H]1CC[C@@H]2OC(=O)N(CCCl)N=O`, the GI50 was 167 nM and the TGI amounted to 17.6 µM.

Molecule `CC12CCC(=O)C=C1CCC1C2CCC2(C)C(C(=O)Cn3cnc4c(=S)nc[nH]c43)CCC12` (centres undefined) showed a TGI of more than 100 µM.

`CN(C)CCNC(=O)c1cccn2c(=O)c3cc4ccccc4cc3nc12`: the GI50 was 126 nM and the TGI was found to be 3.38 µM.

Take `Cn1c(=O)c2[nH]c(/N=N/N3CCN(CCO)CC3)nc2n(C)c1=O`: the TGI is more than 100 µM.

With `COc1cc2c(cc1OC)-c1ccc3cc4c(cc3c1N(CCN1CCCC1)C2)OCO4`, the GI50 is 360 nM and the TGI was 2 µM.

For `c1ccc2nc(Cn3c[n+](Cc4ccc5ccccc5n4)c4ccccc43)ccc2c1`, the GI50 is 2970 nM and the TGI amounted to 14.2 µM.

`O=C(O)CS(=O)(=O)C(c1ccccc1)c1ccccc1`: the TGI is more than 100 µM.

Take `C=C(C)[C@@H]1CC[C@]2(C(=O)NCCCN)CC[C@]3(C)[C@H](CC[C@@H]4[C@@]5(C)CC[C@H](O)C(C)(C)[C@@H]5CC[C@]43C)[C@@H]12`: the GI50 was 23000 nM and the TGI was found to be 63.8 µM.

Regarding `O=C(Nc1cccc(Cl)c1)Nc1ncc(CCNc2ncnc3ccsc23)s1`, the GI50 was 5850 nM and 2750 nM; the TGI is 29.6 µM and > 10 µM.

With `CCOC(=O)Cc1c[nH]c(=S)[nH]c1=O`, the GI50 was more than 100000 nM and the TGI was more than 100 µM.

For the molecule `CCc1c(C)[nH]c(/C=C2\N=C(c3ccc[nH]3)C=C2OC)c1C`, the GI50 is 224 nM and the TGI was 11.3 µM.

Regarding `CCc1ccc(NC(=O)Nc2c[nH]c3ccccc23)cc1`, the GI50 is 4240 nM and the TGI is more than 43.4 µM.
